Assay results reported in patent US12390482B2, “Neurolytic agents and methods of using and identifying same” (priority 2021, dated 2025).

Tests used:
[1] = tested on: WT mouse embryonic dorsal root ganglion (DRG) neurons; test: Axon degeneration in cultured WT DRG neurons; format: cell-based; details: for activity as SARM1 activator (tested compounds): axon degeneration and SARM1 activation assays
Experimental: (§1) DRG neuron culture: Mouse DRG culture was as described previously. Mouse DRGs were dissected at embryonic day 13.5. Approximately 50 ganglia were collected from each embryo and dissociated in 0.05% Trypsin containing 0.02% EDTA (Gibco) at 37° C. for 20 min. The DRG neurons were washed 3 times with DRG culture medium after incubation with Trypsin. Cells were seeded as spot cultures in 96-tissue culture plates (Corning) coated with 0.1 mg/ml poly-D-lysine and 0.1 mg/ml laminin. They were cultured in Neurobasal (Gibco) containing 2% B27 (Invitrogen), 100 ng/ml 2.5S NGF (Harlan Bioproducts), and 1 μM 5-fluoro-2′-deoxyuridine/1 μM uridine. The culture medium was exchanged with fresh DRG culture medium every 2-3 days. Lentiviruses were added 3 days after seeding (DIV3).
[…] After axon transection, bright-field images of distal axons were taken using the Operetta automated imaging system (PerkinElmer). Axon degeneration indexes were calculated from these bright-field images using ImageJ (NIH). The axon degeneration index was calculated as the ratio of fragmented axon areas as previously described. Indexes were calculated as the average of six fields per well.

Sarm1 KO DRG neurons = test: Axon degeneration and neuronal death in cultured Sarm1 KO DRG neurons; format: cell-based, mouse
Experimental: as §1
Quantification of axon degeneration: After culture for 7 days, axotomy was performed by cutting DRG axons manually with a razor blade. After axon transection, bright-field images of distal axons were taken using the Operetta automated imaging system (PerkinElmer). Axon degeneration indexes were calculated from these bright-field images using ImageJ (NIH). The axon degeneration index was calculated as the ratio of fragmented axon areas as previously described. Indexes were calculated as the average of six fields per well.

SARM1 = target: T1, SARM1 (Homo sapiens, UniProt Q6SZW1); test: SARM1 activation assay by PC6 fluorescence; format: biochemical
T1 construct: StrepTag (N); made in house; host or cells: HEK 293T cells stably expressing NRK1
T1 sequence (Q6SZW1 28-724): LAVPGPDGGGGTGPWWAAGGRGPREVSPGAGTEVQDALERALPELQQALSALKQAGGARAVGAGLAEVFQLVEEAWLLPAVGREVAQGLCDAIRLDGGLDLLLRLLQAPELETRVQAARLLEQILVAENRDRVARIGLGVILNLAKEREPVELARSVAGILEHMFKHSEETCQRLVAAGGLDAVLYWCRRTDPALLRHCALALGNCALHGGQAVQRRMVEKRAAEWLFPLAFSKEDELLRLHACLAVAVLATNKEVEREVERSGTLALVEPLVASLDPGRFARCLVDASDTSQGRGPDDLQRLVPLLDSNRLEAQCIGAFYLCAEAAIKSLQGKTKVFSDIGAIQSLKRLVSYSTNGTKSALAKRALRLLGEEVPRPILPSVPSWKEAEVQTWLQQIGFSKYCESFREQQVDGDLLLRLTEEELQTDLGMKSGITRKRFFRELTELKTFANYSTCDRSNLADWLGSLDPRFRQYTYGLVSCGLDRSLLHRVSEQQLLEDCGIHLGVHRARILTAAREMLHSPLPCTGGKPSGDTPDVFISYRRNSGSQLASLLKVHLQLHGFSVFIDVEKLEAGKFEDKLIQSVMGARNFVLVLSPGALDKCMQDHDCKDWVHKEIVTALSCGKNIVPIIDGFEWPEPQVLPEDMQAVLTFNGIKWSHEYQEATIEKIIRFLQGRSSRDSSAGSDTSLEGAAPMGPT
Experimental: SARM1 protein purification from mammalian cells: A HEK 293T cell line stably expressing NRK1 was used to produce SARM1 protein as previously described. In short, plasmid containing N-terminal StrepTag-SARM1 was transfected into NRK1-HEK 293T cells using X-tremeGENE reagent (Millipore Sigma). After 2 days, the cells were harvested and re-suspended with binding buffer (100 mM Tris-HCL pH 8, 150 mM sodium chloride, 0.01% Tween-20 with EDTA-free protease inhibitors (Pierce)). After sonication, cell debris was removed by centrifugation at 15,000×g for 10 minutes. Soluble lysates were then mixed with StrepTactin Megbeads (Cube Biotech) equilibrated with the same binding buffer. After incubation at 4° C. for 60 minutes, beads were washed with washing buffer (25 mM HEPES, pH 7.5 and 150 mM NaCl with EDTA-free protease inhibitors). […]
SARM1 activation assay by PC6 fluorescence: Modified from previous paper, typically, in a mixture of 50 μl, ˜200 ng of SARM1(on-beads) was mixed with 50 μM PC6, 50 μM NAD^+ and 0 to 100 μM of purified 3APMN. The reaction was carried out in a Bio Tek's Cytation 5 plate reader at 25° C. Fluorescence signal, which corresponds to PAD6 formation, was recorded with 405 nm excitation and 520 nm emission wavelengths every 2 minutes. The production rate of PAD6 was calculated based on the fluorescence changes within the first 30 minutes of reaction.

WT DRG neurons = test: Metabolite measurement by LC-MS/MS in WT DRG neurons; format: cell-based, mouse; details: neurons pre-treated with FK866 prior to 3-AP addition
Experimental: as §1
Metabolite measurement using LC-MS/MS: Lyophilized samples were reconstituted with 50 μl of 5 mM ammonium formate and centrifuged at 12,000 g for 10 min. Cleared supernatants were transferred to sample vials. Serial dilutions of standards for each metabolite in 5 mM ammonium formate were used for calibration. HPLC-mass spectrometry analysis was performed on an Agilent 1290 Infinity II liquid chromatography system (Agilent Technologies, Santa Clara, CA) with a flexible pump, multisampler, sample cooler and an MCT containing an Atlantis T3 column (2.1×150 mm, 3 μm) and VanGuard guard cartridge (2.1 mm×5 mm, 3 μm) (Waters, Milford, MA), coupled to an Agilent 6470 Triple Quad mass spectrometer (Agilent Technologies, Santa Clara, CA). The mobile phase (0.15 ml/min) was 5 mM ammonium formate in water (A) and 100% methanol (B). The column was equilibrated with 0% B, maintained after injection for 2 min, then a linear gradient to 20% B applied over 4 min. The column was then ramped to 50% B over 2 min, and held at 50% for 2 min, then reverted back to 0% B over the next 5 min and allowed to re-equilibrate at 0% B for 9 min. The total run time was 24 min per sample. […] Raw data were acquired and quantified using MassHunter Workstation software version B.08.00 for 6400 Series Triple Quadrupole (Agilent Technologies, Santa Clara, CA).

sensory neurons = test: Vacor-induced degeneration of sensory neurons; format: cell-based

For `CC(=O)c1ccccn1` [2-acetylpyridine], the “activity as SARM1 activator (tested compounds)” value (shortened to “activity as SARM1 activator”) [1] was “did not work”.

`Nc1ccccn1` [2-aminopyridine] was tested, and the axon degeneration ([1]; WT neurons) was “causes axon degeneration” and the axon degeneration (Sarm1 KO DRG neurons) was “not in Sarm1 KO neurons”.

With `CC(=O)c1ccc[n+]([C@@H]2O[C@H](COP(=O)([O-])O)[C@@H](O)[C@H]2O)c1` [3-APMN, 3-acetylpyridine mononucleotide] the EC50 (SARM1) was roughly 44 µM.

`Nc1cccnc1` [3-aminopyridine] was tested, and the “activity as SARM1 activator” value [1] was “did not work”.

For `CC(=O)c1ccncc1` [4-acetylpyridine], the “activity as SARM1 activator” value [1] was “did not work”.

For `Nc1ccncc1` [4-aminopyridine], the “activity as SARM1 activator” value [1] was “did not work”.

With `O=C(/C=C/c1cccnc1)NCCCCC1CCN(C(=O)c2ccccc2)CC1` [FK866, reference compound] the “effect on neurotoxic actions of 3-AP” value ([1]; FK866 25, 50 or 100 nM overnight, then 3-AP 300 μM) was “blocks the neurotoxic actions of 3-AP” and the “3-APMN, 3-APAD and cADPR levels in 3-AP treated neurons” value (WT DRG neurons) was 3-APMN and 3-APAD remain at baseline, and cADPR levels do not increase.

With `NC(=O)c1cccnc1` [Nam, nicotinamide] the “effect of pretreatment on 3-AP-induced axon degeneration” value ([1]; Nam 0, 50, 100 or 200 μM overnight, then 3-AP 500 μM) was “reduces 3-AP-induced axon degeneration in a dose-dependent manner”.

`O=C(NCc1cccnc1)Nc1ccc([N+](=O)[O-])cc1` [Vacor, N-(4-Nitrophenyl)-N′-[(pyridin-3-yl)methyl]urea] was tested, and the “SARM1 dependence of neuron degeneration” value (sensory neurons; FIG. 6) was “SARM1-dependent” and the “effect of local application to neurites” value (sensory neurons; local application to neurites) was “causes distal neurite degeneration without harming neuron cell bodies”.
